In ChEMBL document CHEMBL4024727, “Synthesis and antimycobacterial screening of new thiazolyl-oxazole derivatives” (Eur J Med Chem, 2017):
In brackets after ≈: the same amount, converted by molar mass.

Columns and labels:
HeLa = assay: (§1) Growth inhibition of human HeLa cells by MTT assay; type: cell-based; conditions: hela
PANC-1 = assay: (§2) Growth inhibition of human PANC1 cells by MTT assay; type: cell-based; conditions: panc-1
A549 = assay: (§3) Growth inhibition of human A549 cells by MTT assay; type: cell-based; conditions: a549
Pseudomonas fluorescens [1] = assay: Growth inhibition of Pseudomonas fluorescens NCIM 2059 at 30 ug/ml measured after 8 hrs relative to control; type: functional; conditions: NCIM 2059, 8 h, read-out: GI
Staphylococcus aureus [2] = assay: Growth inhibition of Staphylococcus aureus NCIM 2602 at 30 ug/ml measured after 12 hrs relative to control; type: functional; conditions: NCIM 2602, 12 h, read-out: GI
Staphylococcus aureus [3] = assay: Growth inhibition of Staphylococcus aureus NCIM 2602 at 1 ug/ml measured after 12 hrs relative to control; type: functional; conditions: NCIM 2602, 12 h, read-out: GI
[4] = tested on: Mycobacterium tuberculosis; assay: Growth inhibition of Mycobacterium tuberculosis H37Ra ATCC 25177 at 3 ug/ml by XTT dye based two-fold dilution method relative to control; type: functional; conditions: read-out: GI
Escherichia coli [5] = assay: Growth inhibition of Escherichia coli NCIM 2576 at 1 ug/ml measured after 8 hrs relative to control; type: functional; conditions: NCIM 2576, 8 h, read-out: GI
[6] = tested on: Mycobacterium tuberculosis; assay: Growth inhibition of Mycobacterium bovis BCG ATCC 35743 at 10 ug/ml by nitrate reductase based two-fold dilution assay relative to control; type: functional; conditions: BCG str. ATCC 35743, read-out: GI
[7] = tested on: Mycobacterium tuberculosis; assay: Growth inhibition of Mycobacterium bovis BCG ATCC 35743 at 30 ug/ml by nitrate reductase based two-fold dilution assay relative to control; type: functional; conditions: BCG str. ATCC 35743, read-out: GI
Escherichia coli [8] = assay: Growth inhibition of Escherichia coli NCIM 2576 at 30 ug/ml measured after 8 hrs relative to control; type: functional; conditions: NCIM 2576, 8 h, read-out: GI
[9] = tested on: Mycobacterium tuberculosis; assay: Growth inhibition of Mycobacterium tuberculosis H37Ra ATCC 25177 at 10 ug/ml by XTT dye based two-fold dilution method relative to control; type: functional; conditions: read-out: GI
Pseudomonas fluorescens [10] = assay: Growth inhibition of Pseudomonas fluorescens NCIM 2059 at 1 ug/ml measured after 8 hrs relative to control; type: functional; conditions: NCIM 2059, 8 h, read-out: GI
Bacillus subtilis [11] = assay: Growth inhibition of Bacillus subtilis NCIM 2162 at 1 ug/ml measured after 12 hrs relative to control; type: functional; conditions: NCIM 2162, 12 h, read-out: GI
Bacillus subtilis [12] = assay: Antibacterial activity against Bacillus subtilis NCIM 2162 measured after 12 hrs; type: functional; conditions: NCIM 2162, 12 h
Escherichia coli [13] = assay: Antibacterial activity against Escherichia coli NCIM 2576 measured after 8 hrs; type: functional; conditions: NCIM 2576, 8 h
[14] = tested on: Mycobacterium tuberculosis; assay: Antitubercular activity against Mycobacterium bovis BCG ATCC 35743 dormant stage by nitrate reductase based two-fold dilution assay; type: functional; conditions: BCG str. ATCC 35743
Staphylococcus aureus [15] = assay: Antibacterial activity against Staphylococcus aureus NCIM 2602 measured after 12 hrs; type: functional; conditions: NCIM 2602, 12 h
Staphylococcus aureus [16] = assay: Growth inhibition of Staphylococcus aureus NCIM 2602 at 10 ug/ml measured after 12 hrs relative to control; type: functional; conditions: NCIM 2602, 12 h, read-out: GI
Escherichia coli [17] = assay: Growth inhibition of Escherichia coli NCIM 2576 at 10 ug/ml measured after 8 hrs relative to control; type: functional; conditions: NCIM 2576, 8 h, read-out: GI
Pseudomonas fluorescens [18] = assay: Antibacterial activity against Pseudomonas fluorescens NCIM 2059 measured after 8 hrs; type: functional; conditions: NCIM 2059, 8 h
[19] = tested on: Mycobacterium tuberculosis; assay: Growth inhibition of Mycobacterium bovis BCG ATCC 35743 at 1 ug/ml by nitrate reductase based two-fold dilution assay relative to control; type: functional; conditions: BCG str. ATCC 35743, read-out: GI
[20] = tested on: Mycobacterium tuberculosis; assay: Antitubercular activity against Mycobacterium tuberculosis H37Ra ATCC 25177 dormant stage by XTT dye based two-fold dilution method; type: functional
Pseudomonas fluorescens [21] = assay: Growth inhibition of Pseudomonas fluorescens NCIM 2059 at 10 ug/ml measured after 8 hrs relative to control; type: functional; conditions: NCIM 2059, 8 h, read-out: GI
Bacillus subtilis [22] = assay: Growth inhibition of Bacillus subtilis NCIM 2162 at 30 ug/ml measured after 12 hrs relative to control; type: functional; conditions: NCIM 2162, 12 h, read-out: GI
[23] = tested on: Mycobacterium tuberculosis; assay: Growth inhibition of Mycobacterium tuberculosis H37Ra ATCC 25177 at 30 ug/ml by XTT dye based two-fold dilution method relative to control; type: functional; conditions: read-out: GI
Bacillus subtilis [24] = assay: Growth inhibition of Bacillus subtilis NCIM 2162 at 10 ug/ml measured after 12 hrs relative to control; type: functional; conditions: NCIM 2162, 12 h, read-out: GI
[25] = as §1; type: cell-based; conditions: HeLa cells
[26] = as §2; type: cell-based, PANC-1; conditions: PANC-1 cells
[27] = as §3; type: cell-based; conditions: A549 cells

| SMILES | inhibition of growth at 30 µg/mL (Pseudomonas fluorescens [1]) [%] | inhibition of growth at 30 µg/mL (Staphylococcus aureus [2]) [%] | inhibition of growth at 1 µg/mL (Staphylococcus aureus [3]) [%] | inhibition of growth at 3 µg/mL [4] [%] | inhibition of growth at 1 µg/mL (Escherichia coli [5]) [%] | inhibition of growth at 10 µg/mL [6] [%] | inhibition of growth at 30 µg/mL [7] [%] | inhibition of growth at 30 µg/mL (Escherichia coli [8]) [%] | inhibition of growth at 10 µg/mL [9] [%] | inhibition of growth at 1 µg/mL (Pseudomonas fluorescens [10]) [%] | inhibition of growth at 1 µg/mL (Bacillus subtilis [11]) [%] | MIC (Bacillus subtilis [12]) [µM] | MIC (Escherichia coli [13]) [µM] | IC50 [14] [µM] | MIC90 [14] [µM] | MIC (Staphylococcus aureus [15]) [µM] | inhibition of growth at 1 µg/mL [19] [%] | IC50 [20] [µM] | MIC90 [20] [µM] | inhibition of growth at 30 µg/mL [23] [%] | further results |
| --- | --- | --- | --- | --- | --- | --- | --- | --- | --- | --- | --- | --- | --- | --- | --- | --- | --- | --- | --- | --- | --- |
| CC(=O)O[C@H]1C(=O)[C@@]2(C)[C@H]([C@H](OC(=O)c3ccccc3)[C@]3(O)C[C@H](OC(=O)[C@H](O)[C@@H](NC(=O)c4ccccc4)c4ccccc4)C(C)=C1C3(C)C)[C@]1(OC(C)=O)CO[C@@H]1C[C@@H]2O [PACLITAXEL] |  |  |  |  |  |  |  |  |  |  |  |  |  |  |  |  |  |  |  |  | GI90 (HeLa): 0.075 µg/mL (≈ 0.0878 µM); GI90 (PANC-1): 5.715 µg/mL (≈ 6.69 µM); GI90 (A549): 0.0706 µg/mL (≈ 0.0827 µM) |
| Cc1nc(-c2ccccc2)oc1-c1csc(-c2cccc(Cl)c2)n1 | 65.8 | 69.4 | 20.5 | 12 | 24.9 | 26 | 40 | 68.2 | 14 | 23.5 | 24.8 | > 100 | > 100 | > 100 | > 100 | > 100 | 26 | > 100 | > 100 | 27 | inhibition of growth at 10 µg/mL (Staphylococcus aureus [16]): 55.6%; inhibition of growth at 10 µg/mL (Escherichia coli [17]): 51.8%; MIC (Pseudomonas fluorescens [18]): > 100 µM; inhibition of growth at 10 µg/mL (Pseudomonas fluorescens [21]): 56.2%; inhibition of growth at 30 µg/mL (Bacillus subtilis [22]): 69.8%; inhibition of growth at 10 µg/mL (Bacillus subtilis [24]): 57.3% |
| Cc1nc(-c2ccc(F)cc2)oc1-c1csc(-c2ccc(F)c(Cl)c2)n1 | 65.8 | 63 | 45.7 | 6 | 45.7 | 23 | 29 | 64.2 | 11 | 44.3 | 41.2 | > 100 | > 100 | > 100 | > 100 | > 100 | 21 | > 100 | > 100 | 13 | inhibition of growth at 10 µg/mL (Staphylococcus aureus [16]): 55.2%; inhibition of growth at 10 µg/mL (Escherichia coli [17]): 55.9%; MIC (Pseudomonas fluorescens [18]): > 100 µM; inhibition of growth at 10 µg/mL (Pseudomonas fluorescens [21]): 56.2%; inhibition of growth at 30 µg/mL (Bacillus subtilis [22]): 69.4%; inhibition of growth at 10 µg/mL (Bacillus subtilis [24]): 55.6% |
| Cc1nc(-c2ccccc2)oc1-c1csc(-c2ccc(Cl)cc2)n1 | 44.9 | 48.9 | 12.8 | 38 | 11.1 | 41 | 43 | 48.9 | 45 | 10.5 | 14.9 | > 100 | > 100 | > 100 | > 100 | > 100 | 30 | > 100 | > 100 | 46 | inhibition of growth at 10 µg/mL (Staphylococcus aureus [16]): 22.3%; inhibition of growth at 10 µg/mL (Escherichia coli [17]): 25.3%; MIC (Pseudomonas fluorescens [18]): > 100 µM; inhibition of growth at 10 µg/mL (Pseudomonas fluorescens [21]): 23.7%; inhibition of growth at 30 µg/mL (Bacillus subtilis [22]): 45.7%; inhibition of growth at 10 µg/mL (Bacillus subtilis [24]): 29.2% |
| CO[C@H]1/C=C/O[C@@]2(C)Oc3c(C)c(O)c4c(O)c(c(/C=N/N5CCN(C)CC5)c(O)c4c3C2=O)NC(=O)/C(C)=C\C=C\[C@H](C)[C@H](O)[C@@H](C)[C@@H](O)[C@@H](C)[C@H](OC(C)=O)[C@@H]1C [RIFAMPIN] |  |  |  | 96.4 |  | 96.8 | 99 |  | 98 |  |  |  |  | 0.04 | 0.98 (≈ 0.806 µg/mL) |  | 94.6 | 0.0024 | 0.91 (≈ 0.749 µg/mL) | 99.5 | GI50 [25]: > 100 µg/mL; GI90 (HeLa): > 100 µg/mL; GI90 (PANC-1): > 100 µg/mL; GI50 [26]: > 100 µg/mL; GI50 [27]: > 100 µg/mL; GI90 (A549): > 100 µg/mL |
| Cc1ccc(-c2nc(-c3oc(-c4ccccc4)nc3C)cs2)cc1 | 30.8 | 31.5 | 5.6 | 13 | 7.19 | 34 | 34 | 33.8 | 15 | 2.57 | 3.92 | > 100 | > 100 | > 100 | > 100 | > 100 | 25 | > 100 | > 100 | 17 | inhibition of growth at 10 µg/mL (Staphylococcus aureus [16]): 14.9%; inhibition of growth at 10 µg/mL (Escherichia coli [17]): 11.1%; MIC (Pseudomonas fluorescens [18]): > 100 µM; inhibition of growth at 10 µg/mL (Pseudomonas fluorescens [21]): 18.6%; inhibition of growth at 30 µg/mL (Bacillus subtilis [22]): 33.4%; inhibition of growth at 10 µg/mL (Bacillus subtilis [24]): 15.9% |
| Cc1nc(-c2ccccc2)oc1-c1csc(-c2ccc(F)cc2)n1 | 61 | 60.5 | 34.6 | 8 | 38.4 | 16 | 27 | 58.5 | 13 | 31.8 | 37.7 | > 100 | > 100 | > 100 | > 100 | > 100 | 11 | > 100 | > 100 | 13 | inhibition of growth at 10 µg/mL (Staphylococcus aureus [16]): 41.7%; inhibition of growth at 10 µg/mL (Escherichia coli [17]): 47.2%; MIC (Pseudomonas fluorescens [18]): > 100 µM; inhibition of growth at 10 µg/mL (Pseudomonas fluorescens [21]): 45.1%; inhibition of growth at 30 µg/mL (Bacillus subtilis [22]): 60.6%; inhibition of growth at 10 µg/mL (Bacillus subtilis [24]): 49.4% |
| Cc1nc(-c2ccccc2)oc1-c1csc(-c2ccc(Br)cc2)n1 | 85.2 | 85.2 | 67.8 | 11 | 67.7 | 36 | 39 | 85.6 | 17 | 64.5 | 65 | > 100 | > 100 | > 100 | > 100 | > 100 | 31 | > 100 | > 100 | 33 | inhibition of growth at 10 µg/mL (Staphylococcus aureus [16]): 72.2%; inhibition of growth at 10 µg/mL (Escherichia coli [17]): 79.1%; MIC (Pseudomonas fluorescens [18]): > 100 µM; inhibition of growth at 10 µg/mL (Pseudomonas fluorescens [21]): 74.2%; inhibition of growth at 30 µg/mL (Bacillus subtilis [22]): 88%; inhibition of growth at 10 µg/mL (Bacillus subtilis [24]): 74.3% |
